# From ChEMBL document CHEMBL6134843, “HDAC11 Inhibition as a Potential Therapeutic Strategy for AML: Target Identification, Lead Discovery, Antitumor Potency, and Mechanism Investigation” (J Med Chem, 2025)
# Calls of active or inactive are those of the source. The calls are words filed in the database; no cut-off is given here.
# What was measured:
# Histone deacetylase 11 = molecular target: T1, Histone deacetylase 11 (Homo sapiens, UniProt Q96DB2); assay: Inhibition of full length human recombinant HDAC11 (1 to 347 end residues) expressed in Sf9 cells using AcetylETDKmyr-AMC as substrate preincubated with enzyme for 1 hr followed by substrate addition and measured after 30 mins by fluorescence analysis
# T1 sequence (Q96DB2 whole entry): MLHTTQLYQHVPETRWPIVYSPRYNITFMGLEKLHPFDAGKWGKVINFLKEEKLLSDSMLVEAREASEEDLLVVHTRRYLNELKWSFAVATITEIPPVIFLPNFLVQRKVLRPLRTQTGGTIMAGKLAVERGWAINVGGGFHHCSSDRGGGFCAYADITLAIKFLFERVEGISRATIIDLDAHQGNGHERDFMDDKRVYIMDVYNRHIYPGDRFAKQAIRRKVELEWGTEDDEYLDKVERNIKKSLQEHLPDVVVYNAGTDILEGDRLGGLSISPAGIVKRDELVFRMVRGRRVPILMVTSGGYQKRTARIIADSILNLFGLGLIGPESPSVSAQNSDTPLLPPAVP
# OCI-AML2 [1] = assay: Induction of ferroptosis in human OCI-AML2 cells assessed as increase in ferrous ion accumulation at 100 uM incubated for 48 hrs by RhoNox-1 staining based flow cytometry analysis; type: functional, cell-based
# [2] = molecular target: T2, Protein deacetylase HDAC6 (Homo sapiens, UniProt Q9UBN7); assay: Inhibition of N-terminal GST-tagged full length human recombinant HDAC6 (1 to 1215 end residues) expressed in Sf9 cells using Boc-Lys-(acetyl)-AMC as substrate preincubated with enzyme for 1 hr followed by substrate addition and measured after 30 mins by fluorescence analysis
# T2 sequence (Q9UBN7 whole entry): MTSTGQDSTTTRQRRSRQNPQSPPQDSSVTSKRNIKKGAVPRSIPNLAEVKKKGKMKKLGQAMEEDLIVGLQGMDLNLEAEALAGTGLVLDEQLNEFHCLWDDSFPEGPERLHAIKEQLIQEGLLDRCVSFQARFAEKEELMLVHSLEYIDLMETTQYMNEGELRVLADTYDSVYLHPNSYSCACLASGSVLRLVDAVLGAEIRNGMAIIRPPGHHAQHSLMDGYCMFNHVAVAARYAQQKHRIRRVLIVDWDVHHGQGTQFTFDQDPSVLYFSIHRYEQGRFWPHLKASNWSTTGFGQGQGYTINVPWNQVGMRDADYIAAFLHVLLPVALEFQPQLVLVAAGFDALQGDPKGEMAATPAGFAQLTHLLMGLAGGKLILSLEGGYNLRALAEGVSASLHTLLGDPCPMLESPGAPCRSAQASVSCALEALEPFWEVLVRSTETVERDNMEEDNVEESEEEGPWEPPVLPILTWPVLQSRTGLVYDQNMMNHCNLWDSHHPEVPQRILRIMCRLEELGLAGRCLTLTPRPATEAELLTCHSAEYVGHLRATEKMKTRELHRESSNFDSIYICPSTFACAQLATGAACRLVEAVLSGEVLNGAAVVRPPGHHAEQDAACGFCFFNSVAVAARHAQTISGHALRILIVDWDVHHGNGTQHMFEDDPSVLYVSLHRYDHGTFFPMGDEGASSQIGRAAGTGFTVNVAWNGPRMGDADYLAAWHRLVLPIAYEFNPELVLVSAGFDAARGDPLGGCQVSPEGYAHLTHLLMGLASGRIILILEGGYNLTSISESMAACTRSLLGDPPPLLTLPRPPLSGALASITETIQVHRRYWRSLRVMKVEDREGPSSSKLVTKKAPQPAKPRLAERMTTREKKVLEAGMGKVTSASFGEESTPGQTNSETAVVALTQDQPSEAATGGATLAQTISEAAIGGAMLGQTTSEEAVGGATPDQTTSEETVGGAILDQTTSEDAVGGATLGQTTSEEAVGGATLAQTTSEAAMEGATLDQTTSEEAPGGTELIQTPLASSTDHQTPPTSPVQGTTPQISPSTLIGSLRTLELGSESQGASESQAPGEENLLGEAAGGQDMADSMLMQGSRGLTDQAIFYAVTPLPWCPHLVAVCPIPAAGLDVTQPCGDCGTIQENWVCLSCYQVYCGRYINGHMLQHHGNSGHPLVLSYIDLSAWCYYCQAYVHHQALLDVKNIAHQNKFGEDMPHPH
# [3] = molecular target: T3, Histone deacetylase 11 (Homo sapiens) (UniProt Q96DB2); assay: Inhibition of HDAC11 in human U-937 cells assessed as increase in SHMT2 fatty acylation level in presence of Alk14 at 100 uM incubated for 6 hrs by Western blot analysis; type: cell-based
# T3 sequence (whole entry): T1 sequence (Q96DB2 whole entry)
# OCI-AML2 [4] = assay: Antiproliferative activity against human OCI-AML2 cells assessed as cell growth inhibition incubated for 2 days by CCK-8 assay; settings: OCI-AML2, 48 h
# U-937 [5] = assay: Induction of ferroptosis in human U-937 cells assessed as increase in ferrous ion accumulation at 100 uM incubated for 48 hrs by RhoNox-1 staining based flow cytometry analysis; type: functional, cell-based
# Histone deacetylase 1 = Histone deacetylase 1 (Homo sapiens, UniProt Q13547); assay: Inhibition of C-terminal 6xHis/FLAG-tagged full length human recombinant HDAC1 (1 to 482 end residues) expressed in Sf9 cells using Boc-Lys-(acetyl)-AMC as substrate preincubated with enzyme for 1 hr followed by substrate addition and measured after 30 mins by fluorescence analysis
# OCI-AML2 [6] = assay: Induction of ferroptosis in human OCI-AML2 cells assessed as increase in ferrous ion accumulation at 5 uM incubated for 48 hrs by RhoNox-1 staining based flow cytometry analysis; type: functional, cell-based
# Histone deacetylase 4 = Histone deacetylase 4 (Homo sapiens, UniProt P56524); assay: Inhibition of N-terminal GST-tagged C-terminal His-tagged human HDAC4 (627 to 1084 end residues) expressed in baculovirus expression system in Sf9 cells using Boc-Lys-(trifluoroacetyl)-AMC as substrate preincubated with enzyme for 1 hr followed by substrate addition and measured after 30 mins by fluorescence analysis
# THP-1 = assay: Induction of cell apoptosis in human THP-1 cells at 100 uM incubated for 48 hrs by Annexin V/DAPI staining based flow cytometry analysis; type: functional
# OCI-AML-3 = assay: Induction of cell apoptosis in human OCI-AML-3 cells at 100 uM incubated for 48 hrs by Annexin V/DAPI staining based flow cytometry analysis; type: functional
# U-937 [7] = assay: Induction of ferroptosis in human U-937 cells assessed as increase in lipid peroxidation accumulation at 100 uM incubated for 48 hrs by C11-BODIPY 581/591 staining based flow cytometry analysis; type: functional, cell-based
# Histone deacetylase 8 = molecular target: T4, Histone deacetylase 8 (Homo sapiens, UniProt Q9BY41); assay: Inhibition of C-terminal His-tagged full length human recombinant HDAC8 (1 to 377 end residues) expressed in Sf9 cells using Boc-Lys-(trifluoroacetyl)-AMC as substrate preincubated with enzyme for 1 hr followed by substrate addition and measured after 30 mins by fluorescence analysis
# T4 sequence (Q9BY41 whole entry): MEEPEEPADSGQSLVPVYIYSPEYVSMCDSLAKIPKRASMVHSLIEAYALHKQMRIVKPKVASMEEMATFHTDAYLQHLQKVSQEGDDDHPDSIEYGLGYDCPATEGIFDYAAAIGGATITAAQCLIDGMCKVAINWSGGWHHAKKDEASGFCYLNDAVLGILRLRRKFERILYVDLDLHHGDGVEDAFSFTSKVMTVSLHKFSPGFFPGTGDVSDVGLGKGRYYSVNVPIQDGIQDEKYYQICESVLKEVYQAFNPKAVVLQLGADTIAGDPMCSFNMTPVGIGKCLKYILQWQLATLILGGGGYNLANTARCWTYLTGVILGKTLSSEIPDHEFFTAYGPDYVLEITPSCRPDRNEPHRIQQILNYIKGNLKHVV
# U-937 [8] = assay: Antitumor activity against human U-937 cells assessed as cell growth inhibition incubated for 2 days by CCK-8 assay; settings: U-937, 48 h
# U-937 [9] = assay: Induction of ferroptosis in human U-937 cells assessed as increase in ferrous ion accumulation at 5 uM incubated for 48 hrs by RhoNox-1 staining based flow cytometry analysis; type: functional, cell-based
# [10] = Antitumor activity against mouse MLL-AF9 cells allografted in female C57BL/6 mouse model assessed as GFP positive leukemic cells in peripheral blood at 50 mg/kg, ip administered once daily for 32 days by FITC staining based analysis (reference value: 72.5 %); type: functional; settings: time 32 day
# [11] = Antitumor activity against mouse MLL-AF9 cells allografted in female C57BL/6 mouse model assessed as GFP positive leukemic cells in peripheral blood at 50 mg/kg, ip administered once daily for 26 days by FITC staining based analysis (reference value: 30.6 %); type: functional; settings: time 26 day
# Sequence of Histone deacetylase 4 (P56524 whole entry): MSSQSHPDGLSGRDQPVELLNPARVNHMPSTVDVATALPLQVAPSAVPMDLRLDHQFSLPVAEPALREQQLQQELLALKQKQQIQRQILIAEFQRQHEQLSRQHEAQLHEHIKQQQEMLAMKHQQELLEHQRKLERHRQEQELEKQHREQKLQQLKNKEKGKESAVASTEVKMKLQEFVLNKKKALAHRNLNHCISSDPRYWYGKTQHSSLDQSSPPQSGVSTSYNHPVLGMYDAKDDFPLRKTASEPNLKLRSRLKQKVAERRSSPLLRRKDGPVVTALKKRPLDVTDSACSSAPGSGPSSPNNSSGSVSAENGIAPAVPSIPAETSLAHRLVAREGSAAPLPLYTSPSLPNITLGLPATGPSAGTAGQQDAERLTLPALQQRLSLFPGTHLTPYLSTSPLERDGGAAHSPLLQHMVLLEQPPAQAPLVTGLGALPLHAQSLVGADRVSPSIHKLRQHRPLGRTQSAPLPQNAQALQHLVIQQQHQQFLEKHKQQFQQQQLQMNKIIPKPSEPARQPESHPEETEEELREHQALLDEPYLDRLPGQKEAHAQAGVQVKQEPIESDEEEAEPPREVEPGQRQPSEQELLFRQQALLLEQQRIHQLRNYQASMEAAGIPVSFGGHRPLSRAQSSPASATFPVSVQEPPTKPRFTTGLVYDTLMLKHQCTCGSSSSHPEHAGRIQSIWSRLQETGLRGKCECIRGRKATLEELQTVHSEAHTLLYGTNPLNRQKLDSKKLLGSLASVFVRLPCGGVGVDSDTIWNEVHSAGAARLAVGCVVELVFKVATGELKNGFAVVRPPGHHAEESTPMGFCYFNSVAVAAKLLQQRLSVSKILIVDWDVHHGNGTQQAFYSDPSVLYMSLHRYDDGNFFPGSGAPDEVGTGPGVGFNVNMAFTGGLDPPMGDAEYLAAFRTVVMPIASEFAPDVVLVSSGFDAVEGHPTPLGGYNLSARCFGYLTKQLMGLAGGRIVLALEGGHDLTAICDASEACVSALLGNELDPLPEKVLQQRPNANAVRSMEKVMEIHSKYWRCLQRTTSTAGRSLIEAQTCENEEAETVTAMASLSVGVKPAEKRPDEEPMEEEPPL
# Sequence of Histone deacetylase 1 (Q13547 whole entry): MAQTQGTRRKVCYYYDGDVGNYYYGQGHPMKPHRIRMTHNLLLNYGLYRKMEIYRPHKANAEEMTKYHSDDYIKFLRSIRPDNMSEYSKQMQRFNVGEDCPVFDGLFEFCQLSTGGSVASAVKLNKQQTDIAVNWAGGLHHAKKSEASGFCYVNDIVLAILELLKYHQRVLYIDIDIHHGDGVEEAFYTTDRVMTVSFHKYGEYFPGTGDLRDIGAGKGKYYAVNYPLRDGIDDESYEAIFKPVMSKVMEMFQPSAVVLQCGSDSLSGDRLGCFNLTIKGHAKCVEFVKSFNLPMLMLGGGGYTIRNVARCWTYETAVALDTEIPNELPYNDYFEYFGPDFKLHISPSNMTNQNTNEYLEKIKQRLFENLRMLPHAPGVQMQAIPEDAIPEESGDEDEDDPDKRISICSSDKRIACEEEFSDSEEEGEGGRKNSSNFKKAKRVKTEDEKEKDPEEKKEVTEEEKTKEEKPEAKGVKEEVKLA
IC50 (Histone deacetylase 11),IC50 [2],inhibition [3],IC50 (OCI-AML2 [4]),IC50 (Histone deacetylase 1),IC50 (Histone deacetylase 4),IC50 (Histone deacetylase 8),IC50 (U-937 [8]),Structure (SMILES),Activity (OCI-AML2 [1]),Activity (U-937 [5]),Activity (OCI-AML2 [6]),Activity (THP-1),Activity (OCI-AML-3),Activity (U-937 [7]),Activity (U-937 [9]),Activity [10],Activity [11]
0.37 µM,77.6 µM,Active,~150 µM,92.5 µM,> 100 µM,> 100 µM,~150 µM,CCCCCCCCCCCCCCCCNNC(=O)c1cccs1,Active,Active,Active,Active,Active,Active,Active,,
,,,,,> 100 µM,,,O=C(NO)c1cccc2[nH]c(C#Cc3ccccc3)cc12,,,,,,,,,
,,,,,,,,Nc1ccn([C@@H]2O[C@H](CO)[C@@H](O)[C@@H]2O)c(=O)n1 [CYTARABINE],,,,,,,,13.2%,5.81%
